These results are taken from publication PMC4207131, “Cyclic Adenosine 5′-Diphosphate Ribose Analogs without a “Southern” Ribose Inhibit ADP-ribosyl Cyclase–Hydrolase CD38” (Journal of Medicinal Chemistry, 2014).

The conditions of data set [1]: cited from earlier work.
Data set [2] relates to Ca^2+-release in permeabilized T-cells. The arrangement: method as in PMID 12932045, PMID 19492987. The settings on record: cited from earlier work.
The conditions of data set [3]: cited from earlier work. The source holds these as a separate data set.
Data set [4] concerns the target T1, CD38 catalytic domain (shCD38) (Homo sapiens, UniProt P28907, N100D/N164A/N209D/N219D).
T1 sequence (P28907 43-300 N100D/N164A/N209D/N219D limits assumed): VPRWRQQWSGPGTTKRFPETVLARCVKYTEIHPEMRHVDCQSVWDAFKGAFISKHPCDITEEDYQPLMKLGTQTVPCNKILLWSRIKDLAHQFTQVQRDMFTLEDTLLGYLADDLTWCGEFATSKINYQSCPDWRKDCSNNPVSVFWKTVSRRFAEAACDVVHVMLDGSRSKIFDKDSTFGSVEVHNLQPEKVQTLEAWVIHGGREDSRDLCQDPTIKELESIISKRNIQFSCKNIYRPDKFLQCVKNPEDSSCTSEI
Kind of data set: RP-HPLC study of ligand hydrolysis by shCD38. As to conditions: for hydrolysis by shCD38 at high concentration / time to 50% hydrolysis: shCD38 4 mg/mL; for hydrolysis by shCD38 at high concentration / hydrolysis by shCD38 at enzyme assay concentration / time to 50% hydrolysis: ligand 1 mM; for hydrolysis by shCD38 at enzyme assay concentration: shCD38 1 μg/mL; for time to 50% hydrolysis: Tris-HCl pH 8, room temperature. As to the method:
Incubation of 7 (1 mM final concentration) with 4 mg/mL shCD38 was monitored using RP-HPLC.
Therefore, further HPLC experiments were carried out using shCD38 concentrations of 1 μg/mL and either cIDPR or 7 to observe the effect of CD38 under conditions that reflect the enzyme assay (Supporting Information, Figure S3).
The solution containing the CD38 catalytic domain was adjusted to the desired concentration using Tris-HCl buffer (20 mM, pH 8), and 50 μL therefrom was added to the inhibitor (0.05 μmol) in an Eppendorf tube at room temperature. At a given time point, a sample of 5 μL was removed and diluted with 95 μL of Milli-Q water. Then 10 μL of this sample was injected directly into the analytical HPLC system (see section General in Experimental Section), eluting at 1 mL/min with an isocratic ion-pair buffer: 0.17% (m/v) cetrimide and 45% (v/v) phosphate buffer (pH 6.4) in MeOH.

Data set [5] has as its target T1, CD38 catalytic domain (shCD38). Briefly: Inhibition of shCD38-mediated cADPR hydrolysis (fluorimetric cycling assay). In kind it is biochemical. The arrangement: incubating 1 μM cADPR with 1 μg/mL CD38 catalytic domain for 10 min; made in house. As to conditions: 1 μM cADPR, 1 μg/mL CD38 catalytic domain, 10 min, 20–24 °C, 25 mM sodium acetate pH 4.5. As to the method:
The inhibition of cADPR hydrolysis by various concentrations of analog (0–1 mM) was determined by incubating 1 μM cADPR with 1 μg/mL CD38 catalytic domain for 10 min at 20–24 °C in 25 mM sodium acetate, pH 4.5. The reaction was stopped by the addition of 150 mM HCl. The precipitated protein was filtered, and the pH was neutralized with Tris base. After the mixture was diluted 20-fold, the concentration of the unhydrolyzed cADPR present in the diluted reaction mixture was assayed by the fluorimetric cycling assay as described previously.[52]

For data set [6] the target is unchanged. The arrangement: incubating 1 μM cADPR with 1 μg/mL CD38 catalytic domain for 10 min; made in house. The settings on record: equivalent 8-substituted cIDPRs; read-out: IC50, inhibition of shCD38-mediated cADPR hydrolysis; cited from earlier work.

Each structure is given as a SMILES string. “Also recorded” adds a separate entry of the source. Where two headings read alike, the source gives them in different places.

Consider `N=c1c2ncn3c2ncn1[C@@H]1C[C@H](COP(=O)(O)OP(=O)(O)OC[C@H]2O[C@@H]3[C@H](O)[C@@H]2O)[C@@H](O)[C@H]1O` [cADPcR, cyclic adenosine 5′-diphosphate carbocyclic ribose], for which the “pKa of the N6-amino dissociation” value in data set [1] is given as 8.9.

`O=c1c2nc(Br)n3c2ncn1[C@@H]1O[C@H](COP(=O)(O)OP(=O)(O)OC[C@H]2O[C@@H]3[C@H](O)[C@@H]2O)[C@@H](O)[C@H]1O` [compound 3]: the “Ca2+-release agonism, membrane permeant” value in data set [2] is “stable membrane permeant agonist of Ca^2+ release”. Besides, in data set [3], the “chemical and biological stability” value was “Chemically and biologically stable”.

In the case of `O=c1c2ncn3c2ncn1[C@@H]1O[C@H](COP(=O)(O)OP(=O)(O)OCCCC3)[C@@H](O)[C@H]1O` [compound 4, N1-Cyclic Hypoxanthine-N9-hydroxybutyl Diphosphate Ribose], in data set [4], the “hydrolysis by shCD38 at high concentration” value is listed as “hydrolyzed by the enzyme at 4 mg/mL but at a slower rate than 7”.

For orientation: IC50 means the point on the concentration scale where inhibition reaches its midpoint. In the case of `O=c1c2nc(Br)n3c2ncn1[C@@H]1O[C@H](COP(=O)(O)OP(=O)(O)OCCCC3)[C@@H](O)[C@H]1O` [compound 5, N1-Cyclic-8-bromohypoxanthine-N9-hydroxybutyl Diphosphate Ribose], in data set [4], the “hydrolysis by shCD38 at high concentration” value is “hydrolyzed by the enzyme at 4 mg/mL but at a slower rate than 7”. The concentration for half-maximal inhibition (IC50) in data set [5] was found to be 27 µM.

Take `N=c1c2ncn3c2ncn1[C@@H]1O[C@H](COP(=O)(O)OP(=O)(O)OC[C@H]2O[C@@H]3[C@H](O)[C@@H]2O)[C@@H](O)[C@H]1O` [cADPR, Cyclic adenosine 5′-diphosphate ribose]: the “pKa of the N6-amino form” value in data set [1] was 8.3. Also, the “hydrolysis at the N1 link” value in data set [3] (neutral aqueous solution and physiological conditions) is “hydrolyzed at the N1 link in both neutral aqueous solution and under physiological conditions”.

In turn, `[N-]=[N+]=Nc1nc2c(=O)n3cnc2n1CCCCOP(=O)(O)OP(=O)(O)OC[C@H]1O[C@@H]3[C@H](O)[C@@H]1O` [compound 6, N1-Cyclic-8-azidohypoxanthine-N9-hydroxybutyl Diphosphate Ribose] returned a concentration for half-maximal inhibition (IC50) in data set [5] of 6.4 µM.

As to `Nc1nc2c(=O)n3cnc2n1CCCCOP(=O)(O)OP(=O)(O)OC[C@H]1O[C@@H]3[C@H](O)[C@@H]1O` [compound 7, N1-Cyclic-8-aminohypoxanthine-N9-hydroxybutyl Diphosphate Ribose], the “change of the ligand peak in the control without shCD38” value in data set [4] (parallel control containing no shCD38) is reported as “no change in the original peak”. In addition, in data set [4], the “hydrolysis by shCD38 at enzyme assay concentration” value is recorded as “not hydrolyzed”, the “hydrolysis by shCD38 at high concentration” value is “faster hydrolysis” and the “time to 50% hydrolysis” value is on record as 105 min. Also, in data set [5], the 50% inhibitory concentration (IC50) was 3.3 µM.

In the case of `Nc1nc2c(=O)n3cnc2n1C1OC(COP(=O)(O)OP(=O)(O)OCC2OC3C(O)C2O)C(O)C1O` (stereo not drawn) [8-NH2-cIDPR], the half-inhibitory concentration (IC50) in data set [6] is 56 µM.

For `O=c1c2ncn3c2ncn1[C@@H]1O[C@H](COP(=O)(O)OP(=O)(O)OC[C@H]2O[C@@H]3[C@H](O)[C@@H]2O)[C@@H](O)[C@H]1O` [compound 2, N1-cyclic inosine 5′-diphosphate ribose], the “hydrolysis by shCD38 at enzyme assay concentration” value in data set [4] (listed as cIDPR) is reported as “neither cIDPR (2) or 8-NH2-N9-butyl-; also recorded: not hydrolyzed”. Moreover, in data set [4], the “hydrolysis by shCD38 at high concentration” value was “hydrolyzed by the enzyme at 4 mg/mL but at a slower rate than 7” and the “time to 50% hydrolysis” value was found to be 420 min. The “ionization over the pH range” value in data set [1] was “no ionization between 6.8 and 10.9”. In data set [2] (permeabilized T-cells), the “Ca2+-release agonism” value is reported as “agonist for Ca^2+-release with almost equivalent potency to cADPR”. Further, in data set [3], the “chemical and biological stability” value was “Chemically and biologically stable”.
